From ChEMBL document CHEMBL1158642, “Syntheses and biological evaluation of ring-C modified colchicine analogs” (Bioorg Med Chem Lett, 2010) come the findings set out here.

One assay concerns MCF7. As to the kind of experiment: Cytotoxicity against human MCF7 cells after 72 hrs by crystal violet staining. It counts as functional, cell-based. The note with it: MCF7, 72 h.
In a further assay the test system is PC-3. As to the kind of experiment: Cytotoxicity against human PC3 cells after 72 hrs by crystal violet staining. It counts as functional, cell-based. The note with it: PC-3, 72 h.
A short description of assay [1]: Inhibition of microtubule polymerization at 10 uM after 10 mins.

As a reminder, the IC50 is the point on the concentration scale where inhibition reaches its midpoint. The low end stands for higher potency, the high end for lower potency.

SMILES strings stand for the structures. The source made the active and inactive calls. The rule behind the calls is not given here.

With `COC1=C[C@H]2C3=C([C@@H](ON2c2cc(C)ccn2)C1=O)[C@@H](NC(C)=O)CCc1cc(OC)c(OC)c(OC)c13`, the IC50 with MCF7 was 10 nM; in the assay with PC-3, 14 nM.

Consider `CCc1cccc(N2O[C@H]3C(=O)C(OC)=C[C@H]2C2=C3[C@@H](NC(C)=O)CCc3cc(OC)c(OC)c(OC)c32)n1`, for which the IC50 in the assay on MCF7 turned out to be 22 nM; with PC-3 it was 23 nM.

As to `COC1=C[C@@H]2ON(c3cnoc3C)[C@@H](C1=O)C1=C2c2c(cc(OC)c(OC)c2OC)CC[C@@H]1NC(C)=O`, the IC50 came out at 250 nM with MCF7 and 245 nM in the assay with PC-3. Further, in assay [1], the result was inactive.

With `COC1=C[C@H]2C3=C([C@@H](ON2c2ccccn2)C1=O)[C@@H](NC(C)=O)CCc1cc(OC)c(OC)c(OC)c13`, the IC50 in the assay on MCF7 stood at 17 nM; in the assay with PC-3, 28 nM. The outcome in assay [1] was Active.

In the assay with PC-3, `COc1cc2c(c(OC)c1OC)-c1ccc(OC)c(=O)cc1[C@@H](NC(C)=O)CC2` [COLCHICINE] displayed an IC50 of 20 nM. Moreover, in assay [1], the result was Active.

For the compound `COC1=C[C@H]2C3=C([C@@H](ON2c2cccc(C)n2)C1=O)[C@@H](NC(C)=O)CCc1cc(OC)c(OC)c(OC)c13`, the IC50 is 20 nM in the assay on MCF7 and 25 nM in the assay on PC-3. Moreover, the result in assay [1] was Active.

For `COC1=C[C@H]2C3=C([C@@H](ON2c2cc(C)on2)C1=O)[C@@H](NC(C)=O)CCc1cc(OC)c(OC)c(OC)c13`, the concentration for half-maximal inhibition (IC50) with MCF7 turned out to be 190 nM; in the assay with PC-3, 250 nM. For the same compound, in assay [1], the result was Active.
